# Test results reported in article PMC6315362, “Cytotoxic Potential of the Novel Horseshoe Crab Peptide Polyphemusin III” (Marine Drugs, 2018).
# Where a SMILES comes first, the peptide text is derived from it. Bridges are numbered along the chain shown (N, C = ends).
# Assays:
# [1] = test system: HL-60 cells; assay: Lactate dehydrogenase (LDH)-release assay; type: cell-based, human; conditions: HL-60, 1 h of incubation, 1.56–25 μM, RPMI serum-free medium; two independent series of triplicated experiments
# Protocol: The loss of membrane integrity, detected by trypan blue exclusion assay and annexin V-FITC/propidium iodide double staining, was also evaluated by lactate dehydrogenase (LDH)-release. The cytosolic enzyme LDH is released upon cell lysis and therefore can be a marker of cell integrity. The percentage of LDH-leakage from cells enables evaluation of direct cell lysis.
# The LDH-release assay (CytoTox 96 Non-Radioactive Cytotoxicity Assay; Promega Corporation, Madison, WI, USA) was performed according to the manufacturer’s protocol. Suspension HL-60 cells (4 × 10^4) were seeded into a 96-well plate in triplicate and incubated for 1 h with various concentrations of polyphemusin III at 100 μL per well in RPMI serum-free medium. Untreated cells served as a control for spontaneous LDH-release and cells treated with 1% Triton X-100 were used as a control for maximal LDH-release. Absorbance was measured at 490 nm using a microplate reader (Eppendorf, Hamburg, Germany). Percent LDH-release was calculated using the following Equation (2):[(experimental LDH-release − spontaneous LDH-release)/(maximal LDH-release − spontaneous LDH-release)] × 100(2)
# The dose response curve shown is an average of two independent experiments.
# [2] = test system: Caspase cascade pathway in HL-60 cells; assay: Gene expression profiling and Oncobox pathway analysis; type: cell-based, human; conditions: versus intact cells, Oncobox
# Protocol: To get a deeper molecular insight into the mechanisms of cell death induced by PM III, we profiled gene expression in the PM III treated (1.25, 2.5, and 5 µM) and intact HL-60 cells. Gene expression profiles were further analyzed using the Oncobox bioinformatical platform to measure activation levels of 376 intracellular signaling pathways. We found a significant inhibition of the Caspase cascade (Figure 6), while the TRAF (tumor necrosis factor receptor (TNF-R)-associated factor) pathway was strongly activated (Figure 7) following the PM III treatment. An additional line of evidence for the non-apoptotic mechanism of the PM III mediated activity was provided by the PTEN pathway. […] The activation levels of all signaling pathways profiled in this study and case-to-normal ratios for the respective genes are shown in Supplementary Table S1. Taken together, these facts rather argue for a non-apoptotic mode of the PM III action.
# RNA extraction was performed immediately before preparation of sequencing libraries using a QIAGEN RNeasy Kit (Qiagen, Venlo, Netherlands) following the manufacturer’s protocol. Then, the RNA Integrity Number (RIN) was measured using an Agilent 2100 bio-Analyzer. Agilent RNA 6000 Nano or Qubit RNA Assay Kits were used to measure RNA concentration. A KAPA RNA Hyper with RiboErase (KAPA Biosystems, Wilmington, MA, USA) kit was used for further depletion of ribosomal RNA. […] Library concentrations and quality were measured using a Qubit ds DNA HS Assay kit (Life Technologies, Carlsbad, CA, USA) and Agilent Tapestation (Agilent, Santa Clara, CA, USA). RNA sequencing was performed using Illumina HiSeq 3000 equipment for single-end sequencing, 50 bp read length, for approximately 30 million raw reads per each sample. […]
# The SABiosciences knowledge base was used to determine structures of intracellular molecular pathways as described previously. […] CNRs were calculated as the ratios of expression levels of a gene in the experimental samples to average expression levels in the control samples. […]
smiles,measurement,setting,value
"CC(C)[C@@H]1NC(=O)[C@H](CCCNC(=N)N)NC(=O)[C@H](Cc2ccccc2)NC(=O)[C@@H](NC(=O)CNC(=O)[C@H](CCCNC(=N)N)NC(=O)[C@@H](N)CCCNC(=N)N)CSSC[C@@H](C(=O)N[C@@H](CCCNC(=N)N)C(=O)O)NC(=O)[C@H](CCCNC(=N)N)NC(=O)[C@H](CCC(N)=O)NC(=O)[C@H](Cc2ccccc2)NC(=O)[C@@H]2CSSC[C@H](NC1=O)C(=O)N[C@@H](Cc1ccc(O)cc1)C(=O)N[C@@H](CCCNC(=N)N)C(=O)NCC(=O)N[C@@H](Cc1ccccc1)C(=O)N2 [PM III, polyphemusin III] (H-RRGCFRVCYRGFCFQRCR-OH; disulfide 4-17, 8-13 (inferred); N-terminus assumed)",LDH-release (cell lysis),[1],concentration-dependent lysis
same,Caspase Cascade: PAS (pathway activation strength),"[2]; HL-60, 1.25 μM",-13.08
same,Caspase Cascade: PAS (pathway activation strength),"[2]; HL-60, 2.5 μM",-13.96
same,Caspase Cascade: PAS (pathway activation strength),"[2]; HL-60, 5 μM",-16.64
